From patent publication US20250042911A1, “NOVEL BENZOPYRAN DERIVATIVE AND USE THEREOF” (SPARK BIOPHARMA, INC, priority 2021, published 2025)
pEC50: −log10 of the molar value. Counter-ions that a name gives are not always drawn.

Test system: human M2 macrophages
Experiment: Inhibition of human M2 macrophage activity, hCCL22 in culture supernatant by ELISA
Format: cell-based
Settings: for pEC50: hCCL22 secretion, THP-1 derived M2-like macrophages, compound present during 72 hours of differentiation; for inhibition at 10 µM: hCCL22 inhibitory activity at 10 μM
Protocol: To obtain human M2 macrophages, human monocytes (THP-1 monocyte, CD4 expression) were stabilized in a 96-well plate for 24 hours and then incubated in culture media containing 100 ng/mL phorbal 12-myristate-13-acetate (PMA; Sigma, P8139) for 24 hours to differentiate into M0 macrophages (macrophage-like phenotype). It was confirmed that differentiated M0 macrophages had reduced CD4 expression and expressed CD11b. M0 macrophages in the plate well were washed once with culture media and incubated in culture media containing 25 ng/mL hIL-4 (Peprotech, 200-04-50) and 25 ng/mL hIL-13 (Peprotech, 200-13-50) for 72 hours to differentiate into M2-like macrophages. Test compounds were diluted by concentration in M2 differentiation media and treated simultaneously during a differentiation period of 72 hours. The inhibitory effect of the test compounds on M2 macrophages was determined by measuring hCCL22 in the medium culture supernatant cultured for 72 hours using an ELISA assay (R&D system, DMD00). The results of the activity measurements are represented in Table 3 (EC50), Table 4 ([…] inhibitory activity at 5 μM) and Table 5 (hCCL22 inhibitory activity at 10 μM).

| SMILES | pEC50 | inhibition at 10 µM (Macrophage, 72 hours) [%] | inhibition at 5 µM (Macrophage, hML22 inhibitory activity at 5 μM, 72 hours) [%] |
| --- | --- | --- | --- |
| CC(=O)c1ccc(-n2c(=O)n3n(c2=O)C2C(=CC3)C(C)(C)Oc3cc(OC(=O)N4C(C)CNCC4C)ccc32)cc1 (centres unmarked) [Example 100, 2-(4-acetylphenyl)-7,7-dimethyl-1,3-dioxo-2,3,5,12b-tetrahydro-1H,7H-chromeno[4,3-c][1,2,4]triazolo[1,2-a]pyridazin-10-yl 2,6-dimethylpiperazine-1-carboxylate hydrochloride] | 4.80 |  |  |
| CN(C)C(=O)Oc1ccc2c(c1)OC(C)(C)C1=CCn3c(=O)n(-c4ccc(C(F)(F)F)cc4)c(=O)n3C12 (centres unmarked) [Example 145, 7,7-dimethyl-1,3-dioxo-2-(4-(trifluoromethyl)phenyl)-2,3,5,12b-tetrahydro-1H,7H-chromeno[4,3-c][1,2,4]triazolo[1,2-a]pyridazin-10-yl dimethylcarbamate] | 4.11 |  |  |
| CC(=O)c1ccc(-n2c(=O)n3n(c2=O)C2C(=CC3)C(C)(C)Oc3cc(-c4cccnc4)ccc32)cc1 (centres unmarked) [Example 42, 2-(4-acetylphenyl)-7,7-dimethyl-10-(pyridin-3-yl)-5,12b-dihydro-1H,7H-chromeno[4,3-c][1,2,4]triazolo[1,2-a]pyridazine-1,3(2H)-dione] | 4.51 |  |  |
| CC(=O)c1ccc(-n2c(=O)n3n(c2=O)C2C(=CC3)C(C)(C)Oc3c2cc(Cl)c(O)c3Cl)cc1 (centres unmarked) [Example 11, 2-(4-acetylphenyl)-9,11-dichloro-10-hydroxy-7,7-dimethyl-5,12b-dihydro-1H,7H-chromeno[4,3-c][1,2,4]triazolo[1,2-a]pyridazine-1,3(2H)-dione] |  | 78.1 |  |
| O=c1n(-c2ccccc2)c(=O)n2n1CC=C1C2c2ccc(O)cc2OC1(CF)CF (centres unmarked) [Example 1, 7,7-bis(fluoromethyl)-10-hydroxy-2-phenyl-5,12b-dihydro-1H,7H-chromeno[4,3-c][1,2,4]triazolo[1,2-a]pyridazine-1,3(2H)-dione] |  | 80.4 |  |
| CNc1c(Cl)cc2c(c1Cl)OC(C)(C)C1=CCn3c(=O)n(-c4ccc(C(C)=O)cc4)c(=O)n3C12 (centres unmarked) [Example 36, 2-(4-acetylphenyl)-9,11-dichloro-7,7-dimethyl-10-(methylamino)-5,12b-dihydro-1H,7H-chromeno[4,3-c][1,2,4]triazolo[1,2-a]pyridazine-1,3(2H)-dione] | 4.97 |  |  |
| CN1CCN(c2ccc3c(c2)OC(C)(C)C2=CCn4c(=O)n(-c5ccc(C(F)(F)F)cc5)c(=O)n4C23)CC1 (centres unmarked) [Example 49, 7,7-dimethyl-10-(4-methylpyrerazin-1-yl)-2-(4-(trifluoromethyl)phenyl)-5,12b-dihydro-1H,7H-chromeno[4,3-c][1,2,4]triazolo[1,2-a]pyridazine-1,3(2H)-dione] | 4.92 |  |  |
| CC(=O)c1ccc(-n2c(=O)n3n(c2=O)C2C(=CC3)C(C)(C)Oc3cc(OC(=O)N4C(C)CN(C(=O)[C@@H]5CCCN5)CC4C)ccc32)cc1 (some centres unmarked) [Example 101, 2-(4-acetylphenyl)-7,7-dimethyl-1,3-dioxo-2,3,5,12b-tetrahydro-1H,7H-chromeno[4,3-c][1,2,4]triazolo[1,2-a]pyridazin-10-yl 2,6-dimethyl-4-prolylpiperazine-1-carboxylate hydrochloride] | 4.75 |  |  |
| CC(=O)c1ccc(-n2c(=O)n3n(c2=O)C2C(=CC3)C(C)(C)Oc3cc(OC(=O)N4CCNCC4(C)C)ccc32)cc1 (centres unmarked) [Example 118, 2-(4-acetylphenyl)-7,7-dimethyl-1,3-dioxo-2,3,5,12b-tetrahydro-1H,7H-chromeno[4,3-c][1,2,4]triazolo[1,2-a]pyridazin-10-yl 2,2-dimethylpiperazine-1-carboxylate hydrochloride] | 5.28 |  |  |
| CC(=O)c1ccc(-n2c(=O)n3n(c2=O)C2C(=CC3)C(C)(C)Oc3cc(NS(N)(=O)=O)ccc32)cc1 (centres unmarked) [Example 9, N-(2-(4-acetylphenyl)-7,7-dimethyl-1,3-dioxo-2,3,5,12b-tetrahydro-1H,7H-chromeno[4,3-c][1,2,4]triazolo[1,2-a]pyridazin-10-yl)sulfuric diamide] |  | 74.8 |  |
| CC(=O)c1ccc(-n2c(=O)n3n(c2=O)C2C(=CC3)C(C)(C)Oc3c2cc(Br)c(N)c3Br)cc1 (centres unmarked) [Example 28, 2-(4-acetylphenyl)-10-amino-9,11-dibromo-7,7-dimethyl-5,12b-dihydro-1H,7H-chromeno[4,3-c][1,2,4]triazolo[1,2-a]pyridazine-1,3(2H)-dione] |  |  | 71.2 |
| CC1(C)Oc2cc(NC3COC3)ccc2C2C1=CCn1c(=O)n(-c3ccc(F)cc3)c(=O)n12 (centres unmarked) [Example 35, 2-(4-fluorophenyl)-7,7-dimethyl-10-(oxetan-3-ylamino)-5,12b-dihydro-1H,7H-chromeno[4,3-c][1,2,4]triazolo[1,2-a]pyridazine-1,3(2H)-dione] | 5.32 | 96.7 |  |
| CC(=O)c1ccc(-n2c(=O)n3n(c2=O)C2C(=CC3)C(C)(C)Oc3cc(N4CCN(S(C)(=O)=O)CC4)ccc32)cc1 (centres unmarked) [Example 52, 2-(4-acetylphenyl)-7,7-dimethyl-10-(4-(methylsulfonyl)piperazin-1-yl)-5,12b-dihydro-1H,7H-chromeno[4,3-c][1,2,4]triazolo[1,2-a]pyridazine-1,3(2H)-dione] | 4.58 |  |  |
| CN(C)C(=O)Oc1ccc2c(c1)OC(C)(C)C1=CCn3c(=O)n(-c4ccc(C(C)(C)C)cc4)c(=O)n3C12 (centres unmarked) [Example 147, 2-(4-(tert-butyl)phenyl)-7,7-dimethyl-1,3-dioxo-2,3,5,12b-tetrahydro-1H,7H-chromeno[4,3-c][1,2,4]triazolo[1,2-a]pyridazin-10-yl dimethylcarbamate] | < 4.10 |  |  |

Now from value to compound, other results behind:

| pEC50 | SMILES | inhibition at 10 µM (Macrophage, 72 hours) [%] | inhibition at 5 µM (Macrophage, hML22 inhibitory activity at 5 μM, 72 hours) [%] |
| --- | --- | --- | --- |
| 5.11 | CC(=O)c1ccc(-n2c(=O)n3n(c2=O)C2C(=CC3)C(C)(C)Oc3cc(N4CCCC4)ccc32)cc1 (centres unmarked) [Example 34, 2-(4-acetylphenyl)-7,7-dimethyl-10-(pyrrolidin-1-yl)-5,12b-dihydro-1H,7H-chromeno[4,3-c][1,2,4]triazolo[1,2-a]pyridazine-1,3(2H)-dione] | 73.7 |  |
| 4.47 | CC(=O)c1ccc(-n2c(=O)n3n(c2=O)C2C(=CC3)C(C)(C)Oc3cc(N4CCN(C)CC4)ccc32)cc1 (centres unmarked) [Example 51, 2-(4-acetylphenyl)-7,7-dimethyl-10-(4-methylpiperazin-1-yl)-5,12b-dihydro-1H,7H-chromeno[4,3-c][1,2,4]triazolo[1,2-a]pyridazine-1,3(2H)-dione] |  |  |
| 5.37 | CC(=O)c1ccc(-n2c(=O)n3n(c2=O)C2C(=CC3)C(C)(C)Oc3cc(NC(C)(C)C)ccc32)cc1 (centres unmarked) [Example 30, 2-(4-acetylphenyl)-10-(tert-butylamino)-7,7-dimethyl-5,12b-dihydro-1H,7H-chromeno[4,3-c][1,2,4]triazolo[1,2-a]pyridazine-1,3(2H)-dione] | 97.3 |  |
| 5.82 | CC(C)(C)OC(=O)N1CCN(C(=O)c2ccc(-n3c(=O)n4n(c3=O)C3C(=CC4)C(C)(C)Oc4cc(O)ccc43)cc2)CC1 (centres unmarked) [Example 54, tert-butyl 4-(4-(10-hydroxy-7,7-dimethyl-1,3-dioxo-5,12b-dihydro-1H,7H-chromeno[4,3-c][1,2,4]triazolo[1,2-a]pyridazin-2(3H)-yl)benzoyl)piperazine-1-carboxylate] |  |  |
| 5.40 | CCNc1ccc2c(c1)OC(C)(C)C1=CCn3c(=O)n(-c4ccc(C(C)=O)cc4)c(=O)n3C12 (centres unmarked) [Example 16, 2-(4-acetylphenyl)-10-(ethylamino)-7,7-dimethyl-5,12b-dihydro-1H,7H-chromeno[4,3-c][1,2,4]triazolo[1,2-a]pyridazine-1,3(2H)-dione] | 79.9 |  |
| 4.50 | CC(=O)c1ccc(-n2c(=O)n3n(c2=O)C2C(=CC3)C(C)(C)Oc3cc(-c4cc(C)nn4C)ccc32)cc1 (centres unmarked) [Example 38, 2-(4-acetylphenyl)-10-(1,3-dimethyl-1H-pyrazol-5-yl)-7,7-dimethyl-5,12b-dihydro-1H,7H-chromeno[4,3-c][1,2,4]triazolo[1,2-a]pyridazine-1,3(2H)-dione] |  |  |
| 4.27 | CCn1nc(C)c(-c2ccc3c(c2)OC(C)(C)C2=CCn4c(=O)n(-c5ccc(C(C)=O)cc5)c(=O)n4C23)c1C (centres unmarked) [Example 40, 2-(4-acetylphenyl)-10-(1-ethyl-3,5-dimethyl-1H-pyrazol-4-yl)-7,7-dimethyl-5,12b-dihydro-1H,7H-chromeno[4,3-c][1,2,4]triazolo[1,2-a]pyridazine-1,3(2H)-dione] |  |  |
| 5.21 | CNc1ccc2c(c1)OC(C)(C)C1=CCn3c(=O)n(-c4ccc(C(C)=O)cc4)c(=O)n3C12 (centres unmarked) [Example 32, 2-(4-acetylphenyl)-7,7-dimethyl-10-(methylamino)-5,12b-dihydro-1H,7H-chromeno[4,3-c][1,2,4]triazolo[1,2-a]pyridazine-1,3(2H)-dione] | 84.4 |  |
| 5.04 | CC(=O)c1ccc(-n2c(=O)n3n(c2=O)C2C(=CC3)C(C)(C)Oc3cc(N(C)C(C)C)ccc32)cc1 (centres unmarked) [Example 45, 2-(4-acetylphenyl)-10-(isopropyl(methyl)amino)-7,7-dimethyl-5,12b-dihydro-1H,7H-chromeno[4,3-c][1,2,4]triazolo[1,2-a]pyridazine-1,3(2H)-dione] |  |  |
| 4.23 | CC(=O)c1ccc(-n2c(=O)n3n(c2=O)C2C(=CC3)C(C)(C)Oc3cc(OC(=O)C(C)(C)C)ccc32)cc1 (centres unmarked) [Example 58, 2-(4-acetylphenyl)-7,7-dimethyl-1,3-dioxo-2,3,5,12b-tetrahydro-1H,7H-chromeno[4,3-c][1,2,4]triazolo[1,2-a]pyridazin-10-yl pivalate] |  |  |
